# Tests used:
# [1] = biological target: T1, succinyl-diaminopimelate desuccinylase (HiDapE) (Haemophilus influenzae, UniProt P44514); assay: ninhydrin-based assay of purified HiDapE with N6-methyl-L,L-SDAP substrate, […] nm; type: biochemical
# T1 construct: gene dapE; recombinant HiDapE, His6-tag cleaved with TEV protease
# [2] = biological target: T1, succinyl-diaminopimelate desuccinylase (HiDapE); assay: hydrolysis by purified HiDapE monitored at […] nm (kcat/Km); type: biochemical
# T1 sequence (P44514 whole entry): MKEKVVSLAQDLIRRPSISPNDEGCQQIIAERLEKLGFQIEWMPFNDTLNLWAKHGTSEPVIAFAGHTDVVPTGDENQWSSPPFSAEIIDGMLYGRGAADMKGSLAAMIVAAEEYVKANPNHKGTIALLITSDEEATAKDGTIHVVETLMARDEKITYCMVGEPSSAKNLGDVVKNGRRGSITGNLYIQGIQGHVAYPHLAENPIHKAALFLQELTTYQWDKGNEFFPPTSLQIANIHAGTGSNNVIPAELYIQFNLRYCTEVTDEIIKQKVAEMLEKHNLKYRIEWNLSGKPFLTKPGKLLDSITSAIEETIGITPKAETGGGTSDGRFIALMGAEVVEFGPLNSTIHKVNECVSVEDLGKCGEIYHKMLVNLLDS
SMILES,IC50 [1],hydrolysis by purified HiDapE monitored at 225 nm (kcat/Km) [2]
O=C(O)c1cccc(S)c1 [3-mercaptobenzoic acid],21.8 µM,
"CN[C@@H](CCC[C@H](NC(=O)CCC(=O)O)C(=O)O)C(=O)O [1b, (2S,6S)-2-(3-Carboxypropanamido)-6-(methylamino)heptanedioic acid]",,3.87x 10^4 M^-1S^-1
OB(O)c1cccs1 [2-thiopheneboronic acid],111 µM,

# — article PMC5919655, “Practical spectrophotometric assay for the dapE-encoded N-succinyl-L,L-diaminopimelic acid desuccinylase, a potential antibiotic target” (PLoS ONE, 2018)
